The record followed here is ChEMBL document CHEMBL1131978, “3D QSAR studies on new oxazolidinone antibacterial agents by comparative molecular field analysis” (Bioorg Med Chem Lett, 1999).

The subject of the test is Staphylococcus aureus. In words: In vitro antibacterial activity against the methicillin-resistant Staphylococcus aureus 88. Type of test: functional.

≈ marks a conversion by molar mass, not a printed value.

In general, MIC refers to the smallest concentration in the dilution series that meets the test's criterion for growth inhibition. Higher therefore signals a less susceptible organism. Take `CC(=O)NC[C@H]1CN(c2ccc(N3CCN(C(=O)c4cc(OCCF)no4)CC3)c(F)c2)C(=O)O1`: the “Log 1/MIC” value is listed as -0.19 and the minimum inhibitory concentration (MIC) is 1.56 µg/mL (≈ 3.16 µM). On the same counts, the results for `CC(=O)NC[C@H]1CN(c2ccc(N3CCN(C(=O)c4cc(C(F)(F)F)no4)CC3)c(F)c2)C(=O)O1` are -0.49 and 3.12 µg/mL (≈ 6.25 µM). `CC(=O)NC[C@H]1CN(c2ccc(N3CCN(C(=O)c4cc(C(=O)N(C)C)no4)CC3)c(F)c2)C(=O)O1`: the “Log 1/MIC” value is -0.49 and the minimum inhibitory concentration (MIC) was 3.12 µg/mL (≈ 6.21 µM). As to `CC(=O)NC[C@H]1CN(c2ccc(N3CCN(Cc4cc(-c5ccc(F)cc5)no4)CC3)c(F)c2)C(=O)O1`, the “Log 1/MIC” value was -0.49 and the MIC is 3.12 µg/mL (≈ 6.1 µM). On the same counts, the results for `CC(=O)NC[C@H]1CN(c2ccc(N3CCN(Cc4cc(-c5ccc(C#N)cc5)no4)CC3)c(F)c2)C(=O)O1` are -0.8 and 6.25 µg/mL (≈ 12.1 µM). Regarding `CC(=O)NC[C@H]1CN(c2ccc(N3CCN(C(=O)c4cc(C)no4)CC3)c(F)c2)C(=O)O1`, the “Log 1/MIC” value is recorded as -0.19 and the lowest concentration to inhibit growth (MIC) was 1.56 µg/mL (≈ 3.5 µM).

In the case of `CC(=O)NC[C@H]1CN(c2ccc(N3CCN(C(=O)c4cc(C(N)=O)no4)CC3)c(F)c2)C(=O)O1`, the “Log 1/MIC” value is recorded as -0.19 and the lowest concentration to inhibit growth (MIC) was 1.56 µg/mL (≈ 3.29 µM). Regarding `CC(=O)NC[C@H]1CN(c2ccc(N3CCN(C(=O)c4cc(Cl)no4)CC3)c(F)c2)C(=O)O1`, the “Log 1/MIC” value is given as 0.11 and it took 0.78 µg/mL (≈ 1.67 µM) to inhibit growth (MIC). In the case of `CCCCCCCCCCS(=O)(=O)N[C@H](CCCCCC)COP(=O)(O)OCCO`, the “Log 1/MIC” value is -0.19 and inhibition of growth (MIC) required 1.56 µg/mL (≈ 3.29 µM). For `CC(=O)NC[C@H]1CN(c2ccc(N3CCN(Cc4cc(-c5ccc(Oc6ccccc6)cc5)no4)CC3)c(F)c2)C(=O)O1`, the “Log 1/MIC” value is listed as -2 and it took 100 µg/mL (≈ 171 µM) to inhibit growth (MIC). In the case of `CC(=O)NC[C@H]1CN(c2ccc(N3CCN(C(=O)c4cc(COC(N)=O)no4)CC3)c(F)c2)C(=O)O1`, the “Log 1/MIC” value was -0.19 and 1.56 µg/mL (≈ 3.09 µM) was the least that counted as inhibitory (MIC). As to `COc1cc(C(=O)N2CCN(c3ccc(N4C[C@H](CNC(C)=O)OC4=O)cc3F)CC2)on1`, the “Log 1/MIC” value is given as -0.19 and inhibition of growth (MIC) required 1.56 µg/mL (≈ 3.38 µM). On the same counts, the results for `CC(=O)NC[C@H]1CN(c2ccc(N3CCN(C(=O)c4cc(COC(=O)N(C)C)no4)CC3)c(F)c2)C(=O)O1` are -0.49 and 3.12 µg/mL (≈ 5.86 µM).

On to `CC(=O)NC[C@H]1CN(c2ccc(N3CCN(C(=O)c4cc(-c5cccs5)no4)CC3)c(F)c2)C(=O)O1`, for which the “Log 1/MIC” value is given as -0.11 and the MIC is 0.78 µg/mL (≈ 1.52 µM). `CC(=O)NC[C@H]1CN(c2ccc(N3CCN(C(=O)c4cc(-c5cnsn5)no4)CC3)c(F)c2)C(=O)O1`: the “Log 1/MIC” value is -0.19 and inhibition of growth (MIC) required 1.56 µg/mL (≈ 3.03 µM). As to `CC(=O)NC[C@H]1CN(c2ccc(N3CCN(C(=O)c4cc(C#N)no4)CC3)c(F)c2)C(=O)O1`, the “Log 1/MIC” value is -0.19 and the MIC is 1.56 µg/mL (≈ 3.42 µM).

For the molecule `CC(=O)NC[C@H]1CN(c2ccc(N3CCN(C(=O)CO)CC3)c(F)c2)C(=O)O1` [EPEREZOLID], the “Log 1/MIC” value is recorded as -0.19 and it took 1.56 µg/mL (≈ 3.96 µM) to inhibit growth (MIC). On to `CC(=O)NC[C@H]1CN(c2ccc(N3CCN(Cc4cc(-c5ccc(Cl)cc5)no4)CC3)c(F)c2)C(=O)O1`, for which the “Log 1/MIC” value was -1.7 and the minimal inhibitory concentration (MIC) was found to be 50 µg/mL (≈ 94.7 µM). On to `COc1cccc(-c2cc(CN3CCN(c4ccc(N5C[C@H](CNC(C)=O)OC5=O)cc4F)CC3)on2)c1`, for which the “Log 1/MIC” value is listed as -0.49 and the lowest concentration to inhibit growth (MIC) was 3.12 µg/mL (≈ 5.96 µM). For the molecule `CC(=O)NC[C@H]1CN(c2ccc(N3CCN(Cc4cc(/C=C/c5ccccc5)no4)CC3)c(F)c2)C(=O)O1`, the “Log 1/MIC” value is -1.4 and inhibition of growth (MIC) required 25 µg/mL (≈ 48.1 µM).

On to `CC(=O)NC[C@H]1CN(c2ccc(N3CCN(C(=O)c4cc(-c5nccs5)no4)CC3)c(F)c2)C(=O)O1`, for which the “Log 1/MIC” value worked out at 0.41 and 0.39 µg/mL (≈ 0.758 µM) was the least that counted as inhibitory (MIC). On the same counts, the results for `CC(=O)NC[C@H]1CN(c2ccc(N3CCN(C(=O)c4ccno4)CC3)c(F)c2)C(=O)O1` are -0.19 and 1.56 µg/mL (≈ 3.62 µM). Take `COc1cc(CN2CCN(c3ccc(N4C[C@H](CNC(C)=O)OC4=O)cc3F)CC2)on1`: the “Log 1/MIC” value is recorded as -0.49 and it took 3.12 µg/mL (≈ 6.97 µM) to inhibit growth (MIC). The molecule `CC(=O)NC[C@H]1CN(c2ccc(N3CCOCC3)c(F)c2)C(=O)O1` [LINEZOLID] yielded an MIC of 1.56 µg/mL (≈ 4.62 µM). Regarding `CC(=O)NC[C@H]1CN(c2ccc(N3CCN(Cc4cc(-c5ccc(C)cc5)no4)CC3)c(F)c2)C(=O)O1`, the “Log 1/MIC” value is -1.1 and 12.5 µg/mL (≈ 24.6 µM) was the least that counted as inhibitory (MIC). For the molecule `CC(=O)NC[C@H]1CN(c2ccc(N3CCN(Cc4cc(-c5ccccn5)no4)CC3)c(F)c2)C(=O)O1`, the “Log 1/MIC” value is -0.19 and the minimal inhibitory concentration (MIC) was determined as 1.56 µg/mL (≈ 3.15 µM). Consider `CC(=O)NC[C@H]1CN(c2ccc(N3CCN(C(=O)c4nccs4)CC3)c(F)c2)C(=O)O1`, for which the “Log 1/MIC” value is -0.19 and the minimal inhibitory concentration (MIC) turned out to be 1.56 µg/mL (≈ 3.49 µM).

Turning to `CC(=O)NC[C@H]1CN(c2ccc(N3CCN(C(=O)c4cc(Br)no4)CC3)c(F)c2)C(=O)O1`, the “Log 1/MIC” value turned out to be 0.11 and the MIC amounted to 0.78 µg/mL (≈ 1.53 µM). Take `CC(=O)NC[C@H]1CN(c2ccc(N3CCN(C(=O)c4cccs4)CC3)c(F)c2)C(=O)O1`: the “Log 1/MIC” value is reported as -0.19 and the lowest concentration to inhibit growth (MIC) was 1.56 µg/mL (≈ 3.49 µM). Turning to `CC(=O)NC[C@H]1CN(c2ccc(N3CCN(C(=O)c4cc(-c5csnn5)no4)CC3)c(F)c2)C(=O)O1`, the “Log 1/MIC” value came out at 0.11 and the MIC came out at 0.78 µg/mL (≈ 1.51 µM).

For the molecule `CC(=O)NC[C@H]1CN(c2ccc(N3CCN(C(=O)c4cc(C(=O)O)no4)CC3)c(F)c2)C(=O)O1`, the “Log 1/MIC” value was -2 and the minimal inhibitory concentration (MIC) was 100 µg/mL (≈ 210 µM). In the case of `CC(=O)NC[C@H]1CN(c2ccc(N3CCN(C(=O)c4cc(O)no4)CC3)c(F)c2)C(=O)O1`, the “Log 1/MIC” value is listed as -1.7 and the minimum inhibitory concentration (MIC) worked out at 50 µg/mL (≈ 112 µM). As for `COc1ccc(-c2cc(CN3CCN(c4ccc(N5C[C@H](CNC(C)=O)OC5=O)cc4F)CC3)on2)cc1OC`, the “Log 1/MIC” value is -0.49 and 3.12 µg/mL (≈ 5.64 µM) was the least that counted as inhibitory (MIC).
